Test results taken from patent US7250521B2, “Method for production of Δ1-pyrrolines” (Bayer CropScience Aktiengesellschaft, priority 2001, dated 2007).

Test: logP determination by HPLC on reverse-phase column (C 18), EEC directive 79/831 Annex V.A8
Type: physicochemical
Protocol: In the acidic range, the determination is carried out at pH 2.3 using the mobile phases 0.1% aqueous phosphoric acid and acetonitrile; linear gradient from 10% acetonitrile to 90% acetonitrile.
In the neutral range, the determination is carried out at pH 7.5 using the mobile phases 0.01 molar aqueous phosphate buffer solution and acetonitrile; linear gradient from 10% acetonitrile to 90% acetonitrile.

[1] = reverse-phase HPLC column (C 18), pH 2.3, acidic range, pH 2.3; 0.1% aqueous phosphoric acid/acetonitrile gradient; 43° C.; values marked a)
[2] = reverse-phase HPLC column (C 18), pH 7.5, neutral range, pH 7.5; 0.01 molar aqueous phosphate buffer/acetonitrile gradient; 43° C.; values marked b)

SMILES | chromatographic logP [1] | further results
O=C1CCC(c2ccc(OC(F)(F)F)cc2)N1 (stereo not drawn) [Example V-1, 5-[4-(trifluoromethoxy)phenyl]-2-pyrrolidinone] | 2 | –
CCOc1cc(C(C)(C)C)ccc1C1CCC(=O)N1 (stereo not drawn) [Example V-3, 5-(4-tert-butyl-2-ethoxyphenyl)-2-pyrrolidinone] | 2.84 | –
CC(C)(C)c1ccc(C2CCC(=O)N2)cc1 (stereo not drawn) [Example V-4] | 1.9 | –
CC(C)c1ccc(C2CCC(=O)N2)cc1 (stereo not drawn) [Example V-5] | 2.13 | –
Cc1cc(Cl)ccc1C1CCC(=O)N1 (stereo not drawn) [Example V-6] | 1.86 | –
Cc1ccc(C2CCC(=O)N2)c(Cl)c1 (stereo not drawn) [Example V-7] | 1.92 | –
O=C1CCC(c2ccc(Cl)cc2Cl)N1 (stereo not drawn) [Example V-8] | 2.02 | –
COc1ccc(C2CCC(=O)N2)cc1F (stereo not drawn) [Example V-9] | 1.29 | –
O=C1CCC(c2ccc(Cl)c(Cl)c2)N1 (stereo not drawn) [Example V-10] | 1.92 | –
O=C1CCC(c2ccc(Cl)cc2)N1 (stereo not drawn) [Example V-11] | – | chromatographic logP (acidic range, pH 2.3; 0.1% aqueous phosphoric acid/acetonitrile gradient; 43° C.; values marked a)): 1.61
Cc1ccc(C2CCC(=O)N2)cc1Cl (stereo not drawn) [Example V-12] | 1.92 | –
O=C1CCC(c2ccc(F)c(F)c2)N1 (stereo not drawn) [Example V-13] | 1.43 | –
Cc1ccc(C2CCC(=O)N2)cc1 (stereo not drawn) [Example V-14] | 1.52 | –
O=C1CCC(c2ccccc2)N1 (stereo not drawn) [Example V-15] | 1.21 | –
O=C1CCC(c2ccc(Br)cc2)N1 (stereo not drawn) [Example V-16] | 1.72 | –
O=C1CCC(c2ccc(F)cc2)N1 (stereo not drawn) [Example V-17] | 1.32 | –
O=C1CCC(c2ccc(-c3ccc(O)cc3)cc2)N1 (stereo not drawn) [Example V-18] | 1.47 | –
O=C1CCC(c2ccc(O)cc2)N1 (stereo not drawn) [Example V-19] | 0.55 | –

SMILES | chromatographic logP [1] | further results
CCOC(=O)Oc1ccc(-c2ccc(C3CCC(=O)N3)cc2)cc1 (stereo not drawn) [Example V-20] | 2.39 | –
CC(C)Oc1ccc(-c2ccc(C3CCC(=O)N3)cc2)cc1 (stereo not drawn) [Example V-21] | 2.77 | –
O=C1CCC(c2ccc(-c3ccc(OCc4ccc(Cl)cc4)cc3)cc2)N1 (stereo not drawn) [Example V-22] | 3.62 | –
O=C1CCC(c2ccc(-c3ccc(OCc4ccc(OC(F)(F)F)cc4)cc3)cc2)N1 (stereo not drawn) [Example V-23] | 3.83 | –
O=C1CCC(c2ccc(SC(F)(F)F)cc2)N1 (stereo not drawn) [Example V-25] | 1.59 | –
CC(C)(C)Sc1ccc(C2CCC(=O)N2)cc1 (stereo not drawn) [Example V-26] | 2.69 | –
O=C1CCC(c2ccc(-c3ccc(OC(F)(F)F)cc3)cc2)N1 (stereo not drawn) [Example V-27] | 2.96 | –
O=C1CCC(c2ccc(-c3ccc(Br)cc3)cc2)N1 (stereo not drawn) [Example V-28] | 2.76 | –
CC(C)(C)OC(=O)N1C(=O)C(C(=O)c2ccccc2Br)CC1c1ccc(OC(F)(F)F)cc1 (stereo not drawn) [II-1, tert-butyl 3-(2-bromobenzoyl)-2-oxo-5-[4-(trifluoromethoxy)phenyl]-1-pyrrolidinecarboxylate] | – | chromatographic logP [2]: 3.35
CC(C)(C)OC(=O)N1C(=O)C(C(=O)c2ccc(Cl)cc2)CC1c1ccc(F)cc1 (stereo not drawn) [II-2] | 4.13 | –
CC(C)(C)OC(=O)N1C(=O)C(C(=O)c2ccccc2C(F)(F)F)CC1c1ccc(Br)cc1 (stereo not drawn) [II-3] | – | chromatographic logP [2]: 3.03
Cc1ccccc1C(=O)C1CC(c2ccc(C(C)C)cc2)N(C(=O)OC(C)(C)C)C1=O (stereo not drawn) [II-5] | – | chromatographic logP [2]: 5.05
CC(C)(C)OC(=O)N1C(=O)C(C(=O)c2ccc(Cl)c(Cl)c2)CC1c1ccccc1 (stereo not drawn) [II-6] | – | chromatographic logP [2]: 4.6
CC(C)(C)OC(=O)N1C(=O)CCC1c1ccc(OC(F)(F)F)cc1 (stereo not drawn) [III-1, tert-butyl 2-oxo-5-[4-(trifluoromethoxy)phenyl]-1-pyrrolidinecarboxylate] | 3.28 | –
CC(C)(C)OC(=O)N1C(=O)CCC1c1ccccc1 (stereo not drawn) [III-2] | 2.52 | –
CC(C)(C)OC(=O)N1C(=O)CCC1c1ccc(-c2ccc(SC(F)(F)F)cc2)cc1 (stereo not drawn) [III-3] | 4.67 | –
CC(C)(C)OC(=O)N1C(=O)CCC1c1ccc(C(C)(C)C)cc1 (stereo not drawn) [III-4] | 3.92 | –
CC(C)c1ccc(C2CCC(=O)N2C(=O)OC(C)(C)C)cc1 (stereo not drawn) [III-5] | 3.65 | –
